Measured values reported in US11396516B2, “Tricyclic compounds as Cyp1 inhibitors” (The General Hospital Corporation, priority 2017, dated 2022).
Read-outs that look alike come from different tables or passages of the source.

Experiments:
[1] = tested on: zebrafish embryos treated with DOX (cardiomyopathy phenotype); assay: Zebrafish doxorubicin cardiomyopathy model (rescue from phenotype); assay type: in vivo; conditions: for rescue from the doxorubicin cardiomyopathy phenotype: zebrafish co-treated with doxorubicin, inhibitors at 10 μM; for protection against doxorubicin cardiotoxicity in the zebrafish model: co-treatment with doxorubicin
Protocol: Zebrafish embryos at 30 hours post-fertilization were treated with DOX at 100 μM in 96-well plates as previously described (Liu et al., 2014). Tested compounds were dissolved in DMSO and added at concentrations ranging from 3 nM to 10 μM (n=6 fish per dose; <1% DMSO v/v). The cardiomyopathy phenotype (decreased cardiac contraction, pericardial edema, and decreased tail blood flow) was assessed under light microscopy (5× magnification) at 40 hours post-treatment (hpt). Percent rescue from the cardiomyopathy phenotype was calculated for each concentration tested. Zebrafish were considered to be rescued from DOX-induced cardiomyopathy if all three features of the phenotype were absent. For the tested compounds, each dose-response experiment was repeated three times.
Dose-response curves were constructed using Prism (GraphPad).
Zebrafish were treated with DOX and assessed for the development of the cardiomyopathy phenotype (decreased cardiac contraction, pericardial edema, and decreased tail blood flow). Zebrafish were considered to be rescued if all three features of the cardiomyopathy phenotype were absent upon co-treatment with a tested compound. Referring to FIGS. 3-9, data are depicted as mean+/−standard error (n=6 fish per dose; each experiment performed in triplicate).

[2] = tested on: HL-1 cardiomyocytes; assay: Cultured HL-1 cardiomyocyte model (DOX-induced apoptosis, viability); assay type: cell-based, mouse; conditions: Mus musculus, HL-1; doxorubicin 5 μM, viability after 18 hours, CellTiter-Glo; read-out: EC50 in HL-1 Cells
Protocol: The cardiomyocyte cell line HL-1 derived from mouse atrial tumor was a gift from W. Claycomb. Cells were cultured as previously published (Claycomb et al., 1998) and treated with doxorubicin 5 μM with or without the tested compounds at a concentration up to 50 μM. Viability was assessed after 18 hours of using a CellTiter-Glo Luminescent assay from Promega. Each dose-response experiment was repeated three times.
Compounds were tested in HL-1 cultured cardiomyocytes to assess for efficacy in preventing DOX-induced apoptosis. Cell viability was assessed as described in the materials and methods section.

[3] = tested on: zebrafish embryos; assay: Zebrafish toxicity in the absence of doxorubicin (TD50); conditions: without doxorubicin
Protocol: Dose-response curves were constructed using Prism (GraphPad). Raw data representing percent rescue at each dose was log-transformed, and EC50 values were calculated using nonlinear regression analysis. The median toxic dose (TD50) was defined for each compound by assessing for pericardial edema, non-specific deformities, and death in the absence of doxorubicin treatment (data not shown). Concentrations at and above the TD50 (toxic dose) were excluded from dose-response curves.

[4] = molecular target: CYP1A (Homo sapiens (Human), UniProt P05177); assay: CYP inhibition assay, human liver microsomes; assay type: biochemical
Protocol: (§1) CYP inhibition experiments were performed by Cerep Panlabs (Eurofins) using human liver microsomes and the following substrates: phenacetin 10 μM (CYP1A), buproprion 100 μM (CYP2B6), paclitaxel 10 μM (CYP2C8), diclofenac 10 μM (CYP 2C9), omeprazole 0.5 μM (CYP2C19), dextromethorphan 5 μM (CYP2D6), and testosterone 50 μM (CYP3A). Metabolites of each substrate were measured using LC-MS/MS. Mean percent inhibition was calculated using the following reference inhibitors: furafylline (CYP1A), clopidogrel (CYP2B6), montelukast (CYP2C8), sulfaphenazole (CYP2C9), oxybutynin (CYP2C19), quinidine (CYP2D6), and ketoconazole (CYP3A). […] All concentrations were tested in duplicate to obtain the final results.
(§2) The ability of the tested compounds to inhibit a panel of CYP enzymes in vitro was assessed using a series of human liver microsome assays.

[5] = molecular target: CYP2C19 (Homo sapiens (Human), UniProt P33261); assay: CYP inhibition assay, human liver microsomes; assay type: biochemical; conditions: omeprazole 0.5 μM, reference oxybutynin
Protocol: as §1, §2

[6] = molecular target: CYP2C8 (Homo sapiens (Human), UniProt P10632); assay: CYP inhibition assay, human liver microsomes; assay type: biochemical; conditions: paclitaxel 10 μM, reference montelukast
Protocol: as §1, §2

[7] = molecular target: CYP2C9 (Homo sapiens (Human), UniProt P11712); assay: CYP inhibition assay, human liver microsomes; assay type: biochemical; conditions: diclofenac 10 μM, reference sulfaphenazole
Protocol: as §1, §2

[8] = molecular target: CYP2D6 (Homo sapiens (Human), UniProt P10635); assay: CYP inhibition assay, human liver microsomes; assay type: biochemical; conditions: dextromethorphan 5 μM, reference quinidine
Protocol: as §1, §2

[9] = molecular target: CYP3A (Homo sapiens, UniProt P08684); assay: CYP inhibition assay, human liver microsomes; assay type: biochemical; conditions: testosterone 50 μM, reference ketoconazole
Protocol: as §1, §2

[10] = tested on: CYP1A; assay: Zebrafish proteomics; assay type: in vivo; conditions: zebrafish embryos, visnagin 20 μM
Protocol: (§3) The proteomics analysis was carried out as described in the material and methods section. All protein abundance values are normalized to DMSO-treated control zebrafish. * p<0.05 compared to the DMSO control using the Benjamini-Hochberg method of correcting for multiple hypotheses.

[11] = tested on: cyp1b1; assay: Zebrafish proteomics; assay type: in vivo; conditions: zebrafish embryos, visnagin 20 μM
Protocol: as §3

[12] = tested on: cyp1c1; assay: Zebrafish proteomics; assay type: in vivo; conditions: zebrafish embryos, visnagin 20 μM
Protocol: as §3

[13] = tested on: dhrs13l1; assay: Zebrafish proteomics; assay type: in vivo; conditions: zebrafish embryos, visnagin 20 μM
[14] = tested on: rad9a; assay: Zebrafish proteomics; assay type: in vivo; conditions: zebrafish embryos, visnagin 20 μM
[15] = tested on: sqstm1; assay: Zebrafish proteomics; assay type: in vivo; conditions: zebrafish embryos, visnagin 20 μM
[16] = tested on: thbs1b; assay: Zebrafish proteomics; assay type: in vivo; conditions: zebrafish embryos, visnagin 20 μM
[17] = tested on: LOC100332237; assay: Zebrafish proteomics; assay type: in vivo; conditions: zebrafish embryos, visnagin 20 μM
[18] = tested on: slc2a1a; assay: Zebrafish proteomics; assay type: in vivo; conditions: zebrafish embryos, visnagin 20 μM
[19] = tested on: gstp2; assay: Zebrafish proteomics; assay type: in vivo; conditions: zebrafish embryos, visnagin 20 μM
[20] = Danio rerio, rescue from DOX (100 μM) cardiomyopathy phenotype, 40 hours post-treatment, read-out: EC50 is zebrafish
[21] = Danio rerio, rescue from DOX cardiomyopathy phenotype, read-out: EC50 in the zebrafish DOX model

Chain of CYP2C8 (P10632 whole entry): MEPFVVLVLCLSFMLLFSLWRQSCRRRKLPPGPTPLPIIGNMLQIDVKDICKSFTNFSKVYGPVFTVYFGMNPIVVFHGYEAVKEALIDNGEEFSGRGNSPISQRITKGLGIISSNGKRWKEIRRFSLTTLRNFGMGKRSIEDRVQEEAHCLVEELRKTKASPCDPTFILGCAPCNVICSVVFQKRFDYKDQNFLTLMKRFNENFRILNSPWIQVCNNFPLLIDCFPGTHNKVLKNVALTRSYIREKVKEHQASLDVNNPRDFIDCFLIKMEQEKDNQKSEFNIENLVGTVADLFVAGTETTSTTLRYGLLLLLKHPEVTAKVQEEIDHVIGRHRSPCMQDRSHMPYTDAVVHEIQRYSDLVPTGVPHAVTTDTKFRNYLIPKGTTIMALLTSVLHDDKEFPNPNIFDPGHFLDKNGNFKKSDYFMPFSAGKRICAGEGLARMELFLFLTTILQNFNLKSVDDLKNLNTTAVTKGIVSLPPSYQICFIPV
Chain of CYP2C9 (P11712 whole entry): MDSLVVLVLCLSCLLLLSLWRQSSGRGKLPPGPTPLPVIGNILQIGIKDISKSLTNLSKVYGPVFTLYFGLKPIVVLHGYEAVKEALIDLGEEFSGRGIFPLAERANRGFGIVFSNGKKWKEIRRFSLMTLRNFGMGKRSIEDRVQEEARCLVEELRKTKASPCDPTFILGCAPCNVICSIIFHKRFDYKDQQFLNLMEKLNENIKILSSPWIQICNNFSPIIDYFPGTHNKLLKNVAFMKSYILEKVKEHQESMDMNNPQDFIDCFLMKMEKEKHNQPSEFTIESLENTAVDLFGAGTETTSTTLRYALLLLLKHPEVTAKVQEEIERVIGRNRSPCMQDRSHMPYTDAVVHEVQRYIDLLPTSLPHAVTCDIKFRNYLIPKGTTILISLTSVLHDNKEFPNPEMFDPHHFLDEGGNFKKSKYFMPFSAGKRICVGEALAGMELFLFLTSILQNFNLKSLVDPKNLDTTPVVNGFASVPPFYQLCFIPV
Chain of CYP2C19 (P33261 whole entry): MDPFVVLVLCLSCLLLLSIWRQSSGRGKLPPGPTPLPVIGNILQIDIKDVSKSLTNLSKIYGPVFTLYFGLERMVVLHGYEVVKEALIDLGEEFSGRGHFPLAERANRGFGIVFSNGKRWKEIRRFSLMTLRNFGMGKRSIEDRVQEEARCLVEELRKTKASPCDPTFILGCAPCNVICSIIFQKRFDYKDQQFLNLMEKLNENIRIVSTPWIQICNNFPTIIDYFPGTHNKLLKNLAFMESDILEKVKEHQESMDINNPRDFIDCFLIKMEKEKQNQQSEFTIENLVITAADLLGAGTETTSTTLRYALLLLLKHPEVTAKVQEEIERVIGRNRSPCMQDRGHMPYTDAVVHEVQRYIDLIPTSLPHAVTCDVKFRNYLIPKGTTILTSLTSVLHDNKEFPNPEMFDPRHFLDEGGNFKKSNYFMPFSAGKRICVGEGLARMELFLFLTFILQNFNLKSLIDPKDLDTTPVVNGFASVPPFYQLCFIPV
Chain of CYP3A (P08684 2-503 limits assumed): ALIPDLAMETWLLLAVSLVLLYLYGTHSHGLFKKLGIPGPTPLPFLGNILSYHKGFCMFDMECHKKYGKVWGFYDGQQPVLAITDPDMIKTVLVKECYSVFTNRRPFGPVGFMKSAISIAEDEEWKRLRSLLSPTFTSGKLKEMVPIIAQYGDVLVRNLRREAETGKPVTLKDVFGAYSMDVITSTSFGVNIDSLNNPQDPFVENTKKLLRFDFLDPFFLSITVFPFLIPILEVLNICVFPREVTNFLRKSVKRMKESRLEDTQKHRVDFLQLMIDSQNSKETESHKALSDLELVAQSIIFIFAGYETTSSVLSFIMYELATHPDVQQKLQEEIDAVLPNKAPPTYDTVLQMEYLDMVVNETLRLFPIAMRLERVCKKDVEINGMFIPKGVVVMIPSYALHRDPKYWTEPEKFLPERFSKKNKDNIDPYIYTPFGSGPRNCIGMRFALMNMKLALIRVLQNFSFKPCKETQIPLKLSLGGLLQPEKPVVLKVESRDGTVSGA
Chain of CYP2D6 (P10635 whole entry): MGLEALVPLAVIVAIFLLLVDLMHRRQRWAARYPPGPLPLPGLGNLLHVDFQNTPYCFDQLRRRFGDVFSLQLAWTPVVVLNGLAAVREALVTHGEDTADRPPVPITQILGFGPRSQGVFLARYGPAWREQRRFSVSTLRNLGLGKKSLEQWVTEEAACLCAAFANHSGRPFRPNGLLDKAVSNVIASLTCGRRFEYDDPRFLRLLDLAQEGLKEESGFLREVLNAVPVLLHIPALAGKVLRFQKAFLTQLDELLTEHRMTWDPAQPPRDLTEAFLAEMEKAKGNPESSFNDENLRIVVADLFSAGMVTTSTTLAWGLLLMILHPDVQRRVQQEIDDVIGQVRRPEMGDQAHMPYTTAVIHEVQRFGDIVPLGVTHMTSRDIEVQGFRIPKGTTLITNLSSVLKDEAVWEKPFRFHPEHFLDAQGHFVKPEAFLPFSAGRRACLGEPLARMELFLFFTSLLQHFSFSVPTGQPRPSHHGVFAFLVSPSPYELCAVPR
Chain of CYP1A (Homo sapiens (Human), UniProt P05177) (P05177 whole entry): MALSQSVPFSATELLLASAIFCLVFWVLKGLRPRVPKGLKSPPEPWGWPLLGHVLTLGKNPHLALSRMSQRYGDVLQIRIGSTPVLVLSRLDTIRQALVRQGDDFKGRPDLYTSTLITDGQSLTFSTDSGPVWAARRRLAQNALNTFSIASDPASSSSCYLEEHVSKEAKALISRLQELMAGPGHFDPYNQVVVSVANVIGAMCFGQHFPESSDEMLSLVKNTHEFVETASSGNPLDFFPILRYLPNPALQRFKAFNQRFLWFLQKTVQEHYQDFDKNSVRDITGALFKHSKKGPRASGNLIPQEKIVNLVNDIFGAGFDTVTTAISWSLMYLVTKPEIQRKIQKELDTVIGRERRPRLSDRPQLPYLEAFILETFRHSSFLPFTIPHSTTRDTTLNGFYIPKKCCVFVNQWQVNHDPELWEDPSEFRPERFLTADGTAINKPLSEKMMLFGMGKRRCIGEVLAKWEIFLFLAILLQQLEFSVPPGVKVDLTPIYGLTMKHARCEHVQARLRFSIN

Compound `CC(C)(C)OC(=O)NCCOc1c2ccoc2cc2oc(=O)ccc12` [Example 3] has an EC50 [1, 20] of 3 nM and an EC50 [2] of over 50000 nM.
Work on `CC(C)(C)OC(=O)NCCOc1c2ccoc2cc2oc(=S)ccc12` [Example 7, tert-butyl (2-((7-thioxo-7H-furo[3,2-g]chromen-4-yl)oxy)ethyl)carbamate] yielded an EC50 [1, 20] of 258 nM.
`CC(C)(C)OC(=O)N1CC(COc2c3ccoc3cc3oc(=O)ccc23)C1` [Example 4, tert-butyl 3-(((7-oxo-7H-furo[3,2-g]chromen-4-yl)oxy)methyl)azetidine-1-carboxylate] showed an EC50 [1, 20] of 10 nM and an EC50 [2] of over 50000 nM.
In the case of `Cc1ccccc1N=Nc1ccc(NC(=O)c2ccnn2C)c(C)c1` [CH-233191], the “rescue from the doxorubicin cardiomyopathy phenotype” value (shortened to “rescue”) [1] is reported as “significant rescue” and the “protection against doxorubicin cardiotoxicity in the zebrafish model” value (“protection” for short) [1] is reported as “prevented DOX cardiomyopathy”.
`O=c1ccc2c(OCC3CO3)c3ccoc3cc2o1` (stereo not drawn) [Example 1, 4-(oxiran-2-ylmethoxy)-7H-furo[3,2-g]chromen-7-one] gave an EC50 [1, 20] of 52 nM and an EC50 [2] of over 50000 nM.
With `c1cc2ccc3cccc4ccc(c1)c2c34` [pyrene] the EC50 [1, 21] was 3700 nM, the “rescue” value [1] was “significant rescue” and the “protection” value [1] was “prevented DOX cardiomyopathy”.
In the case of `COc1cc(C=Cc2ccc(OC)cc2OC)cc(OC)c1` [2,4,3′,5′-tetramethoxystilbene], the EC50 [1, 21] is reported as 8600 nM, the “rescue” value [1] is reported as “significant rescue” and the “protection” value [1] is reported as “prevented DOX cardiomyopathy”.
For `CCSC(=O)NCCOc1c2ccoc2cc2oc(=O)ccc12` [Example 5, S-ethyl (2-((7-oxo-7H-furo[3,2-g]chromen-4-yl)oxy)ethyl)carbamothioate], the EC50 [1, 20] was 3 nM.
With `O=c1cc(-c2ccccc2)oc2c1ccc1ccccc12` [α-naphthoflavone] the EC50 ([1]; rescue from DOX (100 μM) cardiomyopathy phenotype, 40 hours post-treatment, read-out: EC50 is zebrafish) was 293 nM, the “rescue” value [1] was “significant rescue” and the “protection” value [1] was “prevented DOX cardiomyopathy”.
Compound `O=C(NCCCOc1c2ccoc2cc2oc(=O)ccc12)Oc1ccccc1` [Example 6] has an EC50 [1, 20] of 33 nM and an EC50 [2] of over 50000 nM.
With `COC(=O)c1csc(C(=O)c2c[nH]c3ccccc23)n1` [ITE, methyl 2-(1H-indole-3-carbonyl)-1,3-thiazole-4-carboxylate] the “toxicity to zebrafish embryos without doxorubicin” value [3] was “not toxic”.
With “4-ethoxy-7-methyl-5H-furo[3,2-g][1]-benzopyran-5-one [visnagin]” the IC50 [4] was 240 nM, the “Mean % Inhibition CYP2C19” value [5] was 1.2% and the “Mean % Inhibition CYP2C8” value [6] was 8.1%. For the same compound, the “Mean % Inhibition CYP2C9” value [7] was 1.7%, the “Mean % Inhibition CYP2D6” value [8] was 9.9% and the “Mean % Inhibition CYP3A” value [9] was 4.2%. For the same compound, the “Protein Abundance (Normalized to DMSO) cyp1a” value ([10]; 40 hours post-treatment) was 0.84, the “DOX/DOX+ visnagin protein abundance ratio cyp1a” value [10] was 7.03 and the “Protein Abundance (Normalized to DMSO) cyp1b1” value ([11]; 40 hours post-treatment) was 0.94. For the same compound, the “DOX/DOX+ visnagin protein abundance ratio cyp1b1” value [11] was 5.31, the “Protein Abundance (Normalized to DMSO) cyp1c1” value ([12]; 40 hours post-treatment) was 0.80 and the “DOX/DOX+ visnagin protein abundance ratio cyp1c1” value [12] was 7.57. The “Protein Abundance (Normalized to DMSO) dhrs13l1” value ([13]; 40 hours post-treatment) was 0.89, the “DOX/DOX+ visnagin protein abundance ratio dhrs13l1” value [13] was 2.79 and the “Protein Abundance (Normalized to DMSO) rad9a” value ([14]; 40 hours post-treatment) was 1.15. The “DOX/DOX+ visnagin protein abundance ratio rad9a” value [14] was 2.50, the “Protein Abundance (Normalized to DMSO) sqstm1” value ([15]; 40 hours post-treatment) was 0.98 and the “DOX/DOX+ visnagin protein abundance ratio sqstm1” value [15] was 2.43. For the same compound, the “Protein Abundance (Normalized to DMSO) thbs1b” value ([16]; 40 hours post-treatment) was 0.89, the “DOX/DOX+ visnagin protein abundance ratio thbs1b” value [16] was 2.39 and the “Protein Abundance (Normalized to DMSO) LOC100332237” value ([17]; 40 hours post-treatment) was 0.96. For the same compound, the “DOX/DOX+ visnagin protein abundance ratio LOC100332237” value [17] was 2.34, the “Protein Abundance (Normalized to DMSO) slc2a1a” value ([18]; 40 hours post-treatment) was 0.83 and the “DOX/DOX+ visnagin protein abundance ratio slc2a1a” value [18] was 2.23. For the same compound, the “Protein Abundance (Normalized to DMSO) gstp2” value ([19]; 40 hours post-treatment) was 0.89 and the “DOX/DOX+ visnagin protein abundance ratio gstp2” value [19] was 2.14.
